From US20220007646A1, “METHOD TO CONTROL A PHYTHOPATOGENIC FUNGI SELECTED FROM UNCINULA NECATOR, PLASMOPARA VITICOLA AND GLOEOSPORIUM AMPELOPHAGUM IN GRAPES BY COMPOSITIONS COMPRISING MEFENTRIFLUCONAZOLE” (BASF AGRO B.V., priority 2018, published 2022)

What was measured:
[1] = system: Plasmopara viticola; assay: Green house: fungicidal control of grape downy mildew caused by Plasmopara viticola (PLASVI P4); assay type: in vivo; details: grape plants sprayed, inoculated after four days
Experimental: Fungicidal Control of Grape Downy Mildew Caused by Plasmopara viticola […]4) Grape cuttings were grown in pots to the 4 to 5 leaf stage. These plants were sprayed to run-off with a spray solution, containing the concentration of active ingredient or their mixture mentioned in the table below. The plants were allowed to air-dry and cultivated in a greenhouse for four days. Then they were inoculated with an aqueous spore suspension of Plasmopara viticola by spraying it at the lower leaf-side. Then the trial plants were immediately transferred for 24 h to a humid chamber with 22-24° C. and a and a saturated relative humidity. For a period of 5 days, cultivation followed in a greenhouse at 20-25° C. and a relative humidity about 50-80%. To stimulate the outbreak of the disease symptoms, the plants were transferred to a humid chamber again for 24 hours. Then the extent of fungal attack on the lower leaf surface was visually assessed as % diseased leaf area. The disease ratings were converted into efficacies. […] The expected efficacies of active compound mixtures were determined using Colby's formula [R. S. Colby, “Calculating synergistic and antagonistic responses of herbicide combinations”, Weeds 15, 20-22 (1967)] and compared with the observed efficacies.

[2] = system: Uncinula necator; assay: Green house: control of powdery mildew on grape caused by Uncinula necator (UNCINE P7); assay type: in vivo; details: grape plants sprayed, inoculated 7 days later, assessed after 22 days
Experimental: Control of Powdery Mildew on Grape Caused by Uncinula necator ([…]7) Grape cuttings were grown in pots to the 4 to 5 leaf stage. These plants were sprayed to run-off with a spray solution, containing the concentration of active ingredient or their mixture mentioned in the table below. Seven days later the treated plants were inoculated with spores of Uncinula necator by shaking heavily infested stock plants over the treated pots. After cultivation in the greenhouse for 22 days at 21-23° C. and a relative humidity between 40 to 70% the extent of fungal attack on the leaves was visually assessed as % diseased leaf area. The disease ratings were converted into efficacies. […] The expected efficacies of active compound mixtures were determined using Colby's formula [R. S. Colby, “Calculating synergistic and antagonistic responses of herbicide combinations”, Weeds 15, 20-22 (1967)] and compared with the observed efficacies.

[3] = application rate 5 g/ha, 0 = as untreated, 100 = not infected

Q: `CC(O)(Cn1cncn1)c1ccc(Oc2ccc(Cl)cc2)cc1C(F)(F)F` (centres unmarked) [I, mefentrifluconazole] was tested. Which Observed efficacy ([1]; application rate 1 g/ha) did it give?
A: 2

Q: What about the Observed efficacy [1, 3] of the same compound?
A: 1

Q: What about the Observed efficacy [2, 3] of the same compound?
A: 72

Q: How did the Observed efficacy ([2]; application rate 0.5 g/ha) turn out when `Cn1cc(C(=O)Nc2ccccc2-c2cc(F)c(F)c(F)c2)c(C(F)F)n1` [II-6, fluxapyroxad] was run?
A: 52

Q: For `Cc1cc(C(F)(F)F)nn1CC(=O)N1CCC(c2nc(C3=NOC(c4c(F)cccc4F)C3)cs2)CC1` (centres unmarked) [II-9, oxathiapiprolin], which Observed efficacy ([1]; application rate 0.1 g/ha) is on record?
A: 18
